From patent US10918645B2 (LIFEARC, priority 2016, dated 2021)

Columns and labels:
Assay type in all cases: biochemical
Settings in all cases: 1 μM inhibitor concentration
PRK2 = PRK2 (Homo sapiens (Human), UniProt Q16513); test: PRK2 kinase selectivity assay
Method: (§1) 5-20 mU of PRK2 (diluted in 50 mM Tris (pH 7.5), 0.1 mM EGTA, 1 mg/ml BSA, 0.1%, b-Mercaptoethanol) is assayed against Long S6 peptide ([…]) in a final volume of 25.5 μl containing 50 mM Tris (pH 7.5), 0.1 mM EGTA, 0.1%, b-Mercaptoethanol, 30 μM Long S6 peptide, 10 mM magnesium acetate and 0.005 mM [33P-g-ATP](500-1000 cpm/pmole) and incubated for 30 mins at room temperature. Assays are stopped by addition of 5 μl of 0.5M (3%) orthophosphoric acid. Assays are harvested onto P81 Unifilter plates using a wash buffer of 50 mM orthophosphoric acid.

PKD1 = PKD1 (Homo sapiens (Human), UniProt Q15139); test: PKD1 kinase selectivity assay
Method: (§2) PKD1 (5-20 mU diluted in 50 mM Tris pH 7.5, 0.1 mM EGTA, 0.1% b-mercaptoethanol, 1 mg/ml BSA) is assayed substrate peptide ([…]) in a final volume of 25.5 μl containing 50 mM Tris pH 7.5, 0.05% b-mercaptoethanol, 30 μM substrate peptide, 10 mM magnesium acetate and 0.05 mM [33P-g-ATP] (50-1000 cpm/pmole) and incubated for 30 min at room temperature. Assays are stopped by addition of 5 μl of 0.5 M (3%) orthophosphoric acid and then harvested onto P81 Unifilter plates with a wash buffer of 50 mM orthophosphoric acid.

GSK3b = GSK3b (Homo sapiens (Human), UniProt P49841); test: GSK3b kinase selectivity assay
Method: GSK3b (5-20 mU diluted in 20 mM MOPS pH 7.5, 1 mM EDTA, 0.01% Brij35, 5% glycerol, 0.1% b-mercaptoethanol, 1 mg/ml BSA) is assayed against Phospho-GS2 peptide ([…](PO4)EDEEE) in a final volume of 25.5 μl containing 8 mM MOPS pH 7.0, 0.2 mM EDTA, 20 μM Phospho GS2 peptide, 10 mM magnesium acetate and 0.005 mM [33P-g-ATP] (50-1000 cpm/pmole) and incubated for 30 min at room temperature. Assays are stopped by addition of 5 μl of 0.5 M (3%) orthophosphoric acid and then harvested onto P81 Unifilter plates with a wash buffer of 50 mM orthophosphoric acid.

BRSK2 = BRSK2 (Homo sapiens (Human), UniProt Q8IWQ3); test: BRSK2 kinase selectivity assay
Method: as §2, with “BRSK2 (5-20” for “PKD1 (5-20”, “assayed against a” for “assayed”, “b-mercaptoethanol, 300” for “b-mercaptoethanol, 30”

NEK2a = NEK2a (Homo sapiens (Human), UniProt P51955); test: NEK2a kinase selectivity assay
Method: 5-20 mU of NEK2a (diluted in 50 mM Tris (pH 7.5), 0.1 mM EGTA, 1 mg/ml BSA, 0.1%, b-Mercaptoethanol) is assayed against NEK2a peptide ([…]) in a final volume of 25.5 μl containing 50 mM Tris (pH 7.5), 0.1 mM EGTA, 0.01% Brij, 0.1%, b-Mercaptoethanol, 300 μM NEK2a peptide, 10 mM magnesium acetate and 0.05 mM [33P-g-ATP](500-1000 cpm/pmole) and incubated for 30 mins at room temperature. Assays are stopped by addition of 5 μl of 0.5M (3%) orthophosphoric acid. Assays are harvested onto P81 Unifilter plates using a wash buffer of 50 mM orthophosphoric acid.

IKKb = IKKb (Homo sapiens (Human), UniProt O14920); test: IKKb kinase selectivity assay
Method: as §1, with “of IKKb” for “of PRK2”, “against substrate” for “against Long S6”, “of […]” for “of 25.5”, “b-Mercaptoethanol, 300” for “b-Mercaptoethanol, 30”, “μM substrate” for “μM Long S6”

GCK = GCK (Homo sapiens (Human), UniProt Q12851); test: GCK kinase selectivity assay
Method: GCK (5-20 mU diluted in 50 mM Tris pH 7.5, 0.1 mM EGTA, 0.1% β-mercaptoethanol, 1 mg/ml BSA) is assayed against MBP in a final volume of 25.5 μl containing 50 mM Tris pH 7.5, 0.1 mM EGTA, 0.33 mg/ml MBP, 10 mM magnesium acetate and 0.02 mM [33P-γ-ATP] (50-1000 cpm/pmole) and incubated for 30 min at room temperature. Assays are stopped by addition of 5 μl of 0.5 M (3%) orthophosphoric acid and then harvested onto P81 Unifilter plates with a wash buffer of 50 mM orthophosphoric acid.

YES1 = YES1 (Homo sapiens (Human), UniProt P07947); test: YES1 kinase selectivity assay
Method: YES1 (5-20 mU diluted in 50 mM Tris pH 7.5, 0.1 mM EGTA, 1 mg/ml BSA) is assayed against a substrate peptide (Poly Glut Tyr) in a final volume of 25.5 μl containing 50 mM Tris pH 7.5, 1 mg/ml substrate peptide, 10 mM magnesium acetate and 0.02 mM [33P-g-ATP] (50-1000 cpm/pmole) and incubated for 30 min at room temperature. Assays are stopped by addition of 5 μl of 0.5 M (3%) orthophosphoric acid and then harvested onto P81 Unifilter plates with a wash buffer of 50 mM orthophosphoric acid.

Sequence of PKD1 (Q15139 whole entry): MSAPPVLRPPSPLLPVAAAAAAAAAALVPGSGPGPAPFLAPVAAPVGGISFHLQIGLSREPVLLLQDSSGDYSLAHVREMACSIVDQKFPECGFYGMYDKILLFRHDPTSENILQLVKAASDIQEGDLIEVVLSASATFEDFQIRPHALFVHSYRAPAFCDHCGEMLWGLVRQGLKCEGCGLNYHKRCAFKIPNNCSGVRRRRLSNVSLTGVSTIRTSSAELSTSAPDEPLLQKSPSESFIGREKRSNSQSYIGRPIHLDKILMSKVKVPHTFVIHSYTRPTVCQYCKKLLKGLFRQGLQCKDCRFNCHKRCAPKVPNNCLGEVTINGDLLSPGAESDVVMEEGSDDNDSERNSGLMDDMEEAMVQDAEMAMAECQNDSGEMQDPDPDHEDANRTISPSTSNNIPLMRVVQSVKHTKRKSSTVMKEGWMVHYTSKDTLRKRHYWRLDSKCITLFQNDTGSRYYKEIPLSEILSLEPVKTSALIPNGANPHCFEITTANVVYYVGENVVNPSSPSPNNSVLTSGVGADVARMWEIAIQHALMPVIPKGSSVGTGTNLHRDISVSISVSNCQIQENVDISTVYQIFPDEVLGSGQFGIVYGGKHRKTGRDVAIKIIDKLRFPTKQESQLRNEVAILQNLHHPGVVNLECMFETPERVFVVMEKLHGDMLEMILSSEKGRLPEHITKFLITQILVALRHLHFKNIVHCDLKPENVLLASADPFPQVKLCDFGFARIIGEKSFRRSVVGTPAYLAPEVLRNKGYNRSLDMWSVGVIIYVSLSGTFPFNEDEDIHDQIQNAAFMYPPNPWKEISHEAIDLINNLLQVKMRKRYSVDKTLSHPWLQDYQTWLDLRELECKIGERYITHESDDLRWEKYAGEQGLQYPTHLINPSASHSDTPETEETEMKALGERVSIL
Sequence of GSK3b (P49841 whole entry, species assumed): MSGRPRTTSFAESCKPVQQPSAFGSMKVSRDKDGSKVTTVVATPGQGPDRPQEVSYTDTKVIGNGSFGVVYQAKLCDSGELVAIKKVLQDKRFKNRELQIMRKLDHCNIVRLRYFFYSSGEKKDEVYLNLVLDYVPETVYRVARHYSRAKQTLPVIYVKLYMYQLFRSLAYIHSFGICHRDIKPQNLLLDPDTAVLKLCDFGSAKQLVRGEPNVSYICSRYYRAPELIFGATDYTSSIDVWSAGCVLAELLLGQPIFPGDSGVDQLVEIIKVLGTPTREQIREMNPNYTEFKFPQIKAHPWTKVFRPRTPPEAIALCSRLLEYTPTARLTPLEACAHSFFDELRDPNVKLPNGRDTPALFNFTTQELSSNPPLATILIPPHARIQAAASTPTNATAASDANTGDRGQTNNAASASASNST
Sequence of IKKb (O14920 whole entry, species assumed): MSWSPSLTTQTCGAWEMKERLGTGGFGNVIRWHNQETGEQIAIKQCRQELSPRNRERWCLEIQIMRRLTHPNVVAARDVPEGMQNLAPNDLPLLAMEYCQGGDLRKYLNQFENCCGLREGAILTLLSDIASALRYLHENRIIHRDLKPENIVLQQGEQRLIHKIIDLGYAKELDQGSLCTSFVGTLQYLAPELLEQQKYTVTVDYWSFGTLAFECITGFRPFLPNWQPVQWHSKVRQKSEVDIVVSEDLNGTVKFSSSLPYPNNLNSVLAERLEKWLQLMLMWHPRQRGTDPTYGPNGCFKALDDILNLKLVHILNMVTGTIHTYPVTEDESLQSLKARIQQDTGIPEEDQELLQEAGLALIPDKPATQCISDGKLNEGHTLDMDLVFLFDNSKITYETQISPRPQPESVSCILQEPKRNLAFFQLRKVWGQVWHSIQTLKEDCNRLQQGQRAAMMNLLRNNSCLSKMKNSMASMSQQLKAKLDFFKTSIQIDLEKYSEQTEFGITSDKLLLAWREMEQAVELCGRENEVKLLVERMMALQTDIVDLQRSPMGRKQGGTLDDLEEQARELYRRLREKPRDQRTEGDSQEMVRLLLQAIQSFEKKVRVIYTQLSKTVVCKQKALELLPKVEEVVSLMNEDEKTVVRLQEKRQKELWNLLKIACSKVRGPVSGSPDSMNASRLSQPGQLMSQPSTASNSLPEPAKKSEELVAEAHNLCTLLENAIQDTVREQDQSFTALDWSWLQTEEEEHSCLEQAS
Sequence of NEK2a (P51955 whole entry, species assumed): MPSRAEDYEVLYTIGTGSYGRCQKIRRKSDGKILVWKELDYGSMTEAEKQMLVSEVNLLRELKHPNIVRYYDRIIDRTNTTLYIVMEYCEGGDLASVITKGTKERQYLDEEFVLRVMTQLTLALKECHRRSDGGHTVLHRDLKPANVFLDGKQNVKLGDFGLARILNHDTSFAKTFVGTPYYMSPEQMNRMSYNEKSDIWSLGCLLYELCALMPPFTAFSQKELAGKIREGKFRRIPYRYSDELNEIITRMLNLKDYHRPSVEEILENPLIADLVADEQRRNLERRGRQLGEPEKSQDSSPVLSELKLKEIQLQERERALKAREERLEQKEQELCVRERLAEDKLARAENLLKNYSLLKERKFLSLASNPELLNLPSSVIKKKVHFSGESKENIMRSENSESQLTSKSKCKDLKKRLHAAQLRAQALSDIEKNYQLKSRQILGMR
Sequence of PRK2 (Q16513 whole entry, species assumed): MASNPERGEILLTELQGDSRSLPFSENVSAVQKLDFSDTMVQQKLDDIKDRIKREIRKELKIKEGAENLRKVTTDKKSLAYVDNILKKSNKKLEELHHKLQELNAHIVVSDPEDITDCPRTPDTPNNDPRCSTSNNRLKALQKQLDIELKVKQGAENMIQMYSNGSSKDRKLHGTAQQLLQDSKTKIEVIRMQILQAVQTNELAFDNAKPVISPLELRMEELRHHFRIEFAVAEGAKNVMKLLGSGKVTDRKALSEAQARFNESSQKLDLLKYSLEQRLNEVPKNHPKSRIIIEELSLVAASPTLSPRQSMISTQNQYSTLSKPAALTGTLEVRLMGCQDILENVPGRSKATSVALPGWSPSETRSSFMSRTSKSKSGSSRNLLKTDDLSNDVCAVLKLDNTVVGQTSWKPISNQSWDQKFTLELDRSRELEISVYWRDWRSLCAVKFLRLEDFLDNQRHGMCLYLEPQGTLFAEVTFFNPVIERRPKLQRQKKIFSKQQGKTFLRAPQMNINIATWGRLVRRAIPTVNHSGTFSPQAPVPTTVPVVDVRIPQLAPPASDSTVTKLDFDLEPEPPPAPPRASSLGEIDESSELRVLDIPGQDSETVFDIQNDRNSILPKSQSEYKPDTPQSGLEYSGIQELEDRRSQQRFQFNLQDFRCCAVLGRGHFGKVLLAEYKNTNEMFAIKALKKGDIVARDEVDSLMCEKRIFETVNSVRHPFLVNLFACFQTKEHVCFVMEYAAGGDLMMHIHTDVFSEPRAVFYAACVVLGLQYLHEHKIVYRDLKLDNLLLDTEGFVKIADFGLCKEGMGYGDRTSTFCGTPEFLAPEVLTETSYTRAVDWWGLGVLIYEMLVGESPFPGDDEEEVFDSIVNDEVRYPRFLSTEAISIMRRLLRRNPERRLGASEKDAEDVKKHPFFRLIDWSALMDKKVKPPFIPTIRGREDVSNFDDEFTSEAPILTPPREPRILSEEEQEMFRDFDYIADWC
Sequence of BRSK2 (Q8IWQ3 whole entry, species assumed): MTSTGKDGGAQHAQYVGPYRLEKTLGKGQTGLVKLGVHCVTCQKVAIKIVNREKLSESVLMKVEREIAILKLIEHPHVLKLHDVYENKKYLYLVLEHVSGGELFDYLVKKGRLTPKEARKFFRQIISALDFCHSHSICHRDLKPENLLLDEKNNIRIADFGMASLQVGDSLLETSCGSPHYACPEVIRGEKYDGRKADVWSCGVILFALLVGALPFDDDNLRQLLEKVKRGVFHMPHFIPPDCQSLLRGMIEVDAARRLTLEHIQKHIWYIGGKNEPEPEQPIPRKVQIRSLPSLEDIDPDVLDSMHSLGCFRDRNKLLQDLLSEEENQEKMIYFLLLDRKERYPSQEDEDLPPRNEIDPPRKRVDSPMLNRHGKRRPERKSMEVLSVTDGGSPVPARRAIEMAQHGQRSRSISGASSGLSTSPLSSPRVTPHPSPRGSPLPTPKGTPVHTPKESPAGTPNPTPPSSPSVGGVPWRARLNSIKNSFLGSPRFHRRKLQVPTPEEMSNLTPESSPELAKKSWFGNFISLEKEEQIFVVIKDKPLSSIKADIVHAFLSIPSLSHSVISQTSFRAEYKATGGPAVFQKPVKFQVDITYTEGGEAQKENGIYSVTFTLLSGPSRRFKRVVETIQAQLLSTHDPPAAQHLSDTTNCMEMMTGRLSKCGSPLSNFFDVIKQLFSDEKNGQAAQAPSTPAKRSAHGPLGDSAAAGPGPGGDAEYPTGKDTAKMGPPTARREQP
Sequence of YES1 (P07947 whole entry, species assumed): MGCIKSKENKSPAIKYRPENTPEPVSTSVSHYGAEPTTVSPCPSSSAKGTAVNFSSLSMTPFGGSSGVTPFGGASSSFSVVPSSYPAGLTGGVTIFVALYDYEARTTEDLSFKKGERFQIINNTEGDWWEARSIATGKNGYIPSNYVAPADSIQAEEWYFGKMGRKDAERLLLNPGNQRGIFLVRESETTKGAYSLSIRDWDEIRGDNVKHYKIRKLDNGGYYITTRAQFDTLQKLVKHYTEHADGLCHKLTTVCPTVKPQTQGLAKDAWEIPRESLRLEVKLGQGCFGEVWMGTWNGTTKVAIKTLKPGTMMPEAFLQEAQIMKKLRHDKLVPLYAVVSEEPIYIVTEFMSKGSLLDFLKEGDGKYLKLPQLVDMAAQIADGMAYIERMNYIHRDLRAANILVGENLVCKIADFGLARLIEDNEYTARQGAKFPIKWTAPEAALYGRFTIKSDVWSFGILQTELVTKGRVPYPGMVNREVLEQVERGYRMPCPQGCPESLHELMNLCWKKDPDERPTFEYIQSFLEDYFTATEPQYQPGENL

SMILES	percentage inhibition of PRK2 (PRK2)	percentage inhibition of PKD1 (PKD1)	percentage inhibition of GSK3b (GSK3b)	percentage inhibition of BRSK2 (BRSK2)	percentage inhibition of NEK2a (NEK2a)	percentage inhibition of IKKb (IKKb)	percentage inhibition of GCK (GCK)	percentage inhibition of YES1 (YES1)
c1cc2[nH]nc3c2c(n1)N(C1CCOCC1)CCC3 [Example 29, 6-(tetrahydro-2H-pyran-4-yl)-6,7,8,9-tetrahydro-2H-1,2,5,6-tetraazabenzo[cd]azulene]	0 percentage	3 percentage	0 percentage	2 percentage	0 percentage	0 percentage	67 percentage	0 percentage
c1cc2[nH]nc3c2c(n1)N(C1CCC1)CCC3 [Example 22, 6-cyclobutyl-6,7,8,9-tetrahydro-2H-1,2,5,6-tetraazabenzo[cd]azulene]	2 percentage	20 percentage	16 percentage	0 percentage	13 percentage	2 percentage	56 percentage	0 percentage
CN1CCC(N2Cc3ccccc3-c3n[nH]c4ccnc2c34)CC1 [Example 55]	0 percentage	73 percentage	0 percentage	50 percentage	14 percentage	6 percentage	71 percentage	16 percentage
CC(C)n1ncc2c1CN(C1CCN(C)CC1)c1nccc3[nH]nc-2c13 [Example 68]	8 percentage	46 percentage	0 percentage	31 percentage	0 percentage	4 percentage	27 percentage	5 percentage
c1cc2[nH]nc3c2c(n1)N(C1CCCC1)CCC3 [Example 23, 6-cyclopentyl-6,7,8,9-tetrahydro-2H-1,2,5,6-tetraazabenzo[cd]azulene]	0 percentage	9 percentage	0 percentage	0 percentage	8 percentage	0 percentage	41 percentage	0 percentage
